Measured values from US20230406831A1, “COMPOUNDS AND METHODS OF INHIBITING BACTERIAL CHAPERONIN SYSTEMS” (THE TRUSTEES OF INDIANA UNIVERSITY, priority 2020, published 2023).
Where two headings read alike, the source gives them in different places.

Key:
S. aureus = S. aureus bacterial proliferation assay; assay type: cell-based; details: for EC50: Staphylococcus aureus, read-out: S. aureus Proliferation EC50
Method: Evaluation of compounds for inhibition of bacterial cell proliferation.
Growth Media: S. aureus bacteria were grown in Brain Heart Infusion (BHI) broth/agar (Becton, Dickinson and Company). All liquid cultures were grown in BHI media supplemented with 25 mg/L Ca^2+ and 12.5 mg/L Mg^2+ to mimic free physiological concentrations of these cations. A 10 mg/mL Ca^2+ stock solution was prepared by dissolving 3.68 g of CaCl2·2H^2O in 100 mL of deionized water, and a 10 mg/mL Mg^2+ stock solution was prepared by dissolving 8.36 g of […] in 100 mL deionized water. Both stock solutions were filter-sterilized using 0.2 μm pore size cellulose-acetate filters. 2.5 mL of the sterile 10 mg/mL Ca^2+ stock and 1.25 mL of the sterile 10 mg/mL Mg^2+ stock solutions were added per 1 L of autoclaved BHI medium to obtain 25 mg/L Ca^2+ and 12.5 mg/L Mg^2+ ions, respectively.
General Assay Protocol: Stock bacterial cultures were streaked onto BHI agar plates and grown overnight at 37° C. Fresh aliquots of broth were inoculated with single bacterial colonies and the cultures were grown overnight at 37° C. with shaking (240 rpm) in cation adjusted BHI media. The following morning, the overnight cultures were sub-cultured (1:5 dilution) into fresh aliquots of cation adjusted BHI media and grown at 37° C. for 1-2 hours with shaking. After 2 h, cultures were diluted into fresh media to achieve final OD600 readings of 0.017. Aliquots of these diluted cultures (30 μL) were added to clear, flat-bottom, 384-well polystyrene plates that were stamped with 0.5 μL of test compounds in 20 μL media. Compounds were evaluated in dose-response format where the inhibitor concentration range during the proliferation assay was 100 μM to 46 nM (3-fold dilution series). Plates were sealed with “Breathe Easy” oxygen permeable membranes (Diversified Biotech) and left to incubate at 37° C. without shaking (stagnant assay). OD600 nm readings were taken generally at 6-8 h, when bacteria had reached log-phase growth. A second set of baseline control plates were prepared analogously, but without any bacteria added, to correct for possible compound absorbance and/or precipitation. Plates were then read at 600 nm using a Molecular Devices SpectraMax Plus384 microplate reader. EC50 values for the test compounds were obtained by plotting the OD600 results in GraphPad Prism and analyzing by non-linear regression using the log(inhibitor) vs. response (variable slope) equation. For results, see Tables 1, 2, and 3.

[1] = HEK 293 kidney cell viability / cytotoxicity assay (Alamar Blue); assay type: cell-based; details: human
Method: Evaluating compound effects on kidney cell viability.
HEK 293 cells were maintained in MEM medium (Corning Cellgro, 10-009 CV) supplemented with 10% FBS (Sigma, F2242). […] Cells at 80% confluence were harvested and diluted in growth medium, then 45 μL of the HEK 293 cells (1,500 cells/well) were dispensed per well, and plates were sealed with “Breathe Easy” oxygen permeable membranes (Diversified Biotech) and incubated at 37° C., 5% CO2, for 24 h. […] Plates were sealed with “Breathe Easy” oxygen permeable membranes and incubated for an additional 48 h at 37° C. and 5% CO2. The Alamar Blue reporter reagents were then added to a final concentration of 10%, the plates incubated at 37° C. and 5% CO2, and sample fluorescence (535 nm excitation, 590 nm emission) was read using a Molecular Devices FlexStation II 384-well plate reader (readings taken between 4-24 h of incubation so as to achieve signals in the 30-60% range for conversion of resazurin to resorufin). Cell viability was calculated as per vendor instructions (Thermo Fisher—Alamar Blue cell viability assay manual).

[2] = Table 1, cation adjusted BHI media, OD600 at 6-8 h
[3] = Table 2, cation adjusted BHI media, OD600 at 6-8 h
[4] = Table 2, 48 h incubation, Alamar Blue, read-out: HEK 293 Kidney Cell Viability CC50
[5] = HEK 293 kidney cells, Table 2, 48 h incubation, Alamar Blue, read-out: HEK 293 Kidney Cell Viability CC50

Row | SMILES | S. aureus Proliferation EC50 (S. aureus; [3]) [µM] | CC50 at 48 h [1, 4] [µM] | CC50 at 48 h [1, 5] [µM] | further results
1 | Cc1cc(C(C#N)c2ccc(Cl)cc2)c(Cl)cc1NC(=O)c1cc(I)cc(I)c1O (stereo not drawn) [Closantel, reference compound] |  |  |  | EC50 (S. aureus; [2]): 0.48 µM; CC50 at 48 h [1]: 79 µM
2 | O=C(Nc1ccc(Sc2nc3ccccc3s2)c(Cl)c1)c1cc(Br)cc(Br)c1O [Compound 1, reference compound] |  |  |  | EC50 (S. aureus; [2]): 0.3 µM; CC50 at 48 h ([1]; HEK 293 kidney cells, Table 1, 48 h incubation, Alamar Blue, read-out: HEK 293 Kidney Cell Viability CC50): 73 µM
3 | COc1c(Br)cc(Br)cc1C(=O)Nc1cc(Cl)c(C(C#N)c2ccc(Cl)cc2)cc1C (stereo not drawn) [Compound 45, 3,5-dibromo-N-(5-chloro-4-((4-chlorophenyl)(cyano)methyl)-2-methylphenyl)-2-methoxybenzamide] | > 100 | 66 |  | 
4 | Cc1cc(C(C#N)c2ccc(Cl)cc2)c(Cl)cc1NC(=O)c1cc(Br)cc(Br)c1O (stereo not drawn) [Compound 46, 3,5-dibromo-N-(5-chloro-4-((4-chlorophenyl)(cyano)methyl)-2-methylphenyl)-2-hydroxybenzamide] |  | 58 |  | EC50 (S. aureus; [3]): 0.22 µM
5 | COc1c(Br)cccc1C(=O)Nc1cc(Cl)c(C(C#N)c2ccc(Cl)cc2)cc1C (stereo not drawn) [Compound 47, 3-bromo-N-(5-chloro-4-((4-chlorophenyl)(cyano)methyl)-2-methylphenyl)-2-methoxybenzamide] | > 100 | > 100 |  | 
6 | Cc1cc(C(C#N)c2ccc(Cl)cc2)c(Cl)cc1NC(=O)c1cccc(Br)c1O (stereo not drawn) [Compound 48, 3-bromo-N-(5-chloro-4-((4-chlorophenyl)(cyano)methyl)-2-methylphenyl)-2-hydroxybenzamide] |  | 43 |  | EC50 (S. aureus; [3]): 0.58 µM
7 | COc1ccc(Br)cc1C(=O)Nc1cc(Cl)c(C(C#N)c2ccc(Cl)cc2)cc1C (stereo not drawn) [Compound 49, 5-bromo-N-(5-chloro-4-((4-chlorophenyl)(cyano)methyl)-2-methylphenyl)-2-methoxybenzamide] | > 100 | > 100 |  | 
8 | Cc1cc(C(C#N)c2ccc(Cl)cc2)c(Cl)cc1NC(=O)c1cc(Br)ccc1O (stereo not drawn) [Compound 50, 5-bromo-N-(5-chloro-4-((4-chlorophenyl)(cyano)methyl)-2-methylphenyl)-2-hydroxybenzamide] |  | 3.4 |  | EC50 (S. aureus; [3]): 0.11 µM
9 | COc1c(Cl)cc(Cl)cc1C(=O)Nc1cc(Cl)c(C(C#N)c2ccc(Cl)cc2)cc1C (stereo not drawn) [Compound 51, 3,5-dichloro-N-(5-chloro-4-((4-chlorophenyl)(cyano)methyl)-2-methylphenyl)-2-methoxybenzamide] | > 100 | 83 |  | 
10 | Cc1cc(C(C#N)c2ccc(Cl)cc2)c(Cl)cc1NC(=O)c1cc(Cl)cc(Cl)c1O (stereo not drawn) [Compound 52, 3,5-dichloro-N-(5-chloro-4-((4-chlorophenyl)(cyano)methyl)-2-methylphenyl)-2-hydroxybenzamide] |  |  | 44 | EC50 (S. aureus; [3]): 0.27 µM
11 | COc1c(Cl)cccc1C(=O)Nc1cc(Cl)c(C(C#N)c2ccc(Cl)cc2)cc1C (stereo not drawn) [Compound 53, 3-chloro-N-(5-chloro-4-((4-chlorophenyl)(cyano)methyl)-2-methylphenyl)-2-methoxybenzamide] | > 100 |  | > 100 | 
12 | Cc1cc(C(C#N)c2ccc(Cl)cc2)c(Cl)cc1NC(=O)c1cccc(Cl)c1O (stereo not drawn) [Compound 54, 3-chloro-N-(5-chloro-4-((4-chlorophenyl)(cyano)methyl)-2-methylphenyl)-2-hydroxybenzamide] |  | 88 |  | EC50 (S. aureus; [3]): 0.56 µM
13 | COc1cc(Cl)ccc1C(=O)Nc1cc(Cl)c(C(C#N)c2ccc(Cl)cc2)cc1C (stereo not drawn) [Compound 55, 4-chloro-N-(5-chloro-4-((4-chlorophenyl)(cyano)methyl)-2-methylphenyl)-2-methoxybenzamide] | > 100 | > 100 |  | 
14 | Cc1cc(C(C#N)c2ccc(Cl)cc2)c(Cl)cc1NC(=O)c1ccc(Cl)cc1O (stereo not drawn) [Compound 56, 4-chloro-N-(5-chloro-4-((4-chlorophenyl)(cyano)methyl)-2-methylphenyl)-2-hydroxybenzamide] |  | 16 |  | EC50 (S. aureus; [3]): 0.013 µM
15 | COc1ccc(Cl)cc1C(=O)Nc1cc(Cl)c(C(C#N)c2ccc(Cl)cc2)cc1C (stereo not drawn) [Compound 57, 5-chloro-N-(5-chloro-4-((4-chlorophenyl)(cyano)methyl)-2-methylphenyl)-2-methoxybenzamide] | > 100 | 28 |  | EC50 (S. aureus; Table 3, cation adjusted BHI media, OD600 at 6-8 h): > 100 µM
16 | Cc1cc(C(C#N)c2ccc(Cl)cc2)c(Cl)cc1NC(=O)c1cc(Cl)ccc1O (stereo not drawn) [Compound 58, 5-chloro-N-(5-chloro-4-((4-chlorophenyl)(cyano)methyl)-2-methylphenyl)-2-hydroxybenzamide] |  | 11 |  | EC50 (S. aureus): 0.14 µM
17 | COc1ccc(C)cc1C(=O)Nc1cc(Cl)c(C(C#N)c2ccc(Cl)cc2)cc1C (stereo not drawn) [Compound 59, N-(5-chloro-4-((4-chlorophenyl)(cyano)methyl)-2-methylphenyl)-2-methoxy-5-methylbenzamide] | > 100 | 32 |  | 
18 | Cc1ccc(O)c(C(=O)Nc2cc(Cl)c(C(C#N)c3ccc(Cl)cc3)cc2C)c1 (stereo not drawn) [Compound 60, N-(5-chloro-4-((4-chlorophenyl)(cyano)methyl)-2-methylphenyl)-2-hydroxy-5-methylbenzamide] | 1.3 | 40 |  | 
19 | COc1ccccc1C(=O)Nc1cc(Cl)c(C(C#N)c2ccc(Cl)cc2)cc1C (stereo not drawn) [Compound 61, N-(5-chloro-4-((4-chlorophenyl)(cyano)methyl)-2-methylphenyl)-2-methoxybenzamide] | > 100 |  | > 100 | 
20 | COc1cccc(C(=O)Nc2cc(Cl)c(C(C#N)c3ccc(Cl)cc3)cc2C)c1 (stereo not drawn) [Compound 62, N-(5-chloro-4-((4-chlorophenyl)(cyano)methyl)-2-methylphenyl)-3-methoxybenzamide] | > 100 |  | 50 | 
21 | COc1ccc(C(=O)Nc2cc(Cl)c(C(C#N)c3ccc(Cl)cc3)cc2C)cc1 (stereo not drawn) [Compound 63, N-(5-chloro-4-((4-chlorophenyl)(cyano)methyl)-2-methylphenyl)-4-methoxybenzamide] | > 100 |  | > 100 | 
22 | Cc1cc(C(C#N)c2ccc(Cl)cc2)c(Cl)cc1NC(=O)c1ccccc1O (stereo not drawn) [Compound 64, N-(5-chloro-4-((4-chlorophenyl)(cyano)methyl)-2-methylphenyl)-2-hydroxybenzamide] |  | 26 |  | EC50 (S. aureus): 0.28 µM
23 | Cc1cc(C(C#N)c2ccc(Cl)cc2)c(Cl)cc1NC(=O)c1cccc(O)c1 (stereo not drawn) [Compound 65, N-(5-chloro-4-((4-chlorophenyl)(cyano)methyl)-2-methylphenyl)-3-hydroxybenzamide] | 1.8 |  | 44 | 
24 | Cc1cc(C(C#N)c2ccc(Cl)cc2)c(Cl)cc1NC(=O)c1ccc(O)cc1 (stereo not drawn) [Compound 66, N-(5-chloro-4-((4-chlorophenyl)(cyano)methyl)-2-methylphenyl)-4-hydroxybenzamide] | 4.9 |  | 65 | 
25 | Cc1cc(C(C#N)c2ccc(Cl)cc2)c(Cl)cc1NC(=O)c1ccccc1[N+](=O)[O-] (stereo not drawn) [Compound 67, N-(5-chloro-4-((4-chlorophenyl)(cyano)methyl)-2-methylphenyl)-2-nitrobenzamide] | > 100 |  | > 100 | 
